According to US12473295B2, “Substituted straight chain spiro derivatives” (Janssen Pharmaceutica NV, priority 2019, dated 2025):
Counter-ions that a name gives are not always drawn. Like-named read-outs stand apart in the source and are kept apart here.

Tests used:
KO-52 cells = experiment: Proliferation assay (spheroid growth, 8 days), KO-52 control cell line; assay type: cell-based, human; conditions: read-out: spheroid assay_OneTime KO-52 IC50
Experimental: (§1) The anti-proliferative effect of menin/MLL protein/protein interaction inhibitor test compounds was assessed in human leukemia cell lines. The cell line MOLM14 harbors a MLL translocation and expresses the MLL fusion protein MLL-AF9, respectively, as well as the wildtype protein from the second allele. OCI-AML3 cells that carry the NPM1c gene mutation were also tested. […] KO-52 was used as a control cell line containing two MLL (KMT2A) wildtype alleles in order to exclude compounds that display general cytotoxic effects.
(§2) KO-52 and OCI-AML3 cell lines were propagated in alpha-MEM (Sigma Aldrich) supplemented with 20% heat-inactivated fetal bovine serum (HyClone), 2 mM L-glutamine (Sigma Aldrich) and 50 μg/ml gentamycin (Gibco).
(§3) In order to assess the anti-proliferative effects, 200 MOLM14 cells, 200 OCI-AML3 cells or 300 KO-52 cells were seeded in 200 μl media per well in […] round bottom, ultra-low attachment plates (Costar, catalogue number 7007). Cell seeding numbers were chosen based on growth curves to ensure linear growth throughout the experiment. Test compounds were added at different concentrations and the DMSO content was normalized to 0.3%. Cells were incubated for 8 days at 37° C. and 5% CO2. Spheroid like growth was measured in real-time by live-cell imaging (IncuCyteZOOM, Essenbio, 4× objective) acquiring images at day 8. Confluence (%) as a measure of spheroid size was determined using an integrated analysis tool.
(§4) In order to determine the effect of the test compounds over time, the confluence in each well as a measure of spheroid size, was calculated. Confluence of the highest dose of a reference compound was used as baseline for the LC (Low control) and the confluence of DMSO treated cells was used as 0% cytotoxicity (High Control, HC).
(§5) GraphPad Prism(version 7.00) was used to calculate the IC50. Dose-response equation was used for the plot of % Effect vs Log 10 compound concentration with a variable slope and fixing the maximum to 100% and the minimum to 0%.

MOLM14 cells = experiment: Proliferation assay (spheroid growth, 8 days), MOLM14; assay type: cell-based, human; conditions: MOLM14, 8 days, read-out: spheroid assay_OneTime MOLM14 IC50;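 further: spheroid size read as confluence by live-cell imaging, compounds added at a range of concentrations with 0.3% DMSO, DMSO-treated wells = 0%, highest reference dose = low control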
[1] = target: menin/MLL (terbium chelate-labeled menin, FITC-MBM1 peptide) (Homo sapiens (Human), UniProt O00255); experiment: Menin/MLL homogenous time-resolved fluorescence (HTRF) assay; assay type: binding;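 further: IC50 from percent inhibition of HTRF signal, normalized between wells without competitor and wells with a saturating competitor that displaces FITC-MBM1 from His-tagged menin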
menin/MLL (terbium chelate-labeled menin, FITC-MBM1 peptide), sequence (O00255 other isoform, or with tags, fused parts or gaps): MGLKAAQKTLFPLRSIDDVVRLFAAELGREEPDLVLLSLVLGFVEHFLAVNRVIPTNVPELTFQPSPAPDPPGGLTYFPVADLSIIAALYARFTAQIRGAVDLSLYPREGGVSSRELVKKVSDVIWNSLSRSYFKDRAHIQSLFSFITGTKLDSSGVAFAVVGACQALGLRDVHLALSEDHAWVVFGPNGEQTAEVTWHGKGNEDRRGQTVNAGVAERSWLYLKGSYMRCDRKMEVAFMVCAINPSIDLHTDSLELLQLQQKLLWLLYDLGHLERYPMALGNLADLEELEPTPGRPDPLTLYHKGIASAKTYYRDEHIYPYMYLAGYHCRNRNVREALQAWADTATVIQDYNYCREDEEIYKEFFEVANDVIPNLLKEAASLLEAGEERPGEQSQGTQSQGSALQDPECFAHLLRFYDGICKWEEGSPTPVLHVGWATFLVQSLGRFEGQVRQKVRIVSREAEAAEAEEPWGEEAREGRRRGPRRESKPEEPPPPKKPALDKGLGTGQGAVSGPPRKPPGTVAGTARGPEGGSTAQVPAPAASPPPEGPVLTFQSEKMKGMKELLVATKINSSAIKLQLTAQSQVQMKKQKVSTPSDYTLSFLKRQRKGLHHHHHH

MEIS1 mRNA = MEIS1 mRNA expression assay (Quantigene Singleplex) in MOLM14 cells; assay type: cell-based, human; conditions: 48 hours incubation;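 further: MEIS1 transcript levels read by probe hybridization and normalized to RPL28 mRNA, with IC50 fitted to fold changes across a rising compound concentration series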
OCI-AML3 cells = experiment: Proliferation assay (spheroid growth, 8 days), OCI-AML3; assay type: cell-based, human; conditions: Homo sapiens, OCI-AML-3, […], OCI-AML3, 8 days
Experimental: as §1, §2, §3, §4, §5

[2] = HTRF-30 min incubation IC50, 30 min incubation
[3] = read-out: HTRF-30 min incubation IC50, 30 min incubation

SMILES: CCN(C(=O)c1cc(F)ccc1Oc1nncnc1N1CCC2(C1)CN([C@@H](CCCNC)C(C)C)C2)C(C)C [Compound 20, (S)—N-ethyl-5-fluoro-N-isopropyl-2-((5-(2-(2-methyl-6-(methylamino)hexan-3-yl)-2,6-diazaspiro[3.4]octan-6-yl)-1,2,4-triazin-6-yl)oxy)benzamide hydrochloride]
- IC50 (KO-52 cells; Homo sapiens, […]): > 15000 nM
- IC50 (MOLM14 cells; Homo sapiens, MOLM-14, […]): > 940 nM

SMILES: CCN(C(=O)c1cc(F)ccc1Oc1nncnc1N1CCC2(C1)CN([C@@H](CCC(C)(C)N)C(C)C)C2)C(C)C (single isomer, unassigned) [Compound 31, (*S)-2-((5-(2-(6-amino-2,6-dimethylheptan-3-yl)-2,6-diazaspiro[3.4]octan-6-yl)-1,2,4-triazin-6-yl)oxy)-N-ethyl-5-fluoro-N-isopropylbenzamide]
- IC50 [1, 2]: 2.28 nM
- IC50 (KO-52 cells; Homo sapiens, […]): > 15000 nM
- IC50 (MOLM14 cells; Homo sapiens, MOLM-14, […]): > 940 nM
- IC50 (MEIS1 mRNA; Homo sapiens, MOLM-14, 48 h): > 1000 nM

SMILES: CCN(C(=O)c1cc(F)ccc1Oc1nncnc1N1CCC2(C1)CN([C@H](CCCN(C)CC(F)F)C(C)C)C2)C(C)C [Compound 16, (R)-2-((5-(2-(6-((2,2-difluoroethyl)(methyl)amino)-2-methylhexan-3-yl)-2,6-diazaspiro[3.4]octan-6-yl)-1,2,4-triazin-6-yl)oxy)-N-ethyl-5-fluoro-N-isopropylbenzamide]
- IC50 [1, 2]: 1.85 nM
- IC50 (KO-52 cells; Homo sapiens, […]): 10500 nM
- IC50 (MOLM14 cells; Homo sapiens, MOLM-14, […]): 370 nM
- IC50 (MEIS1 mRNA; Homo sapiens, MOLM-14, 48 h): ~670 nM

SMILES: CCN(C(=O)c1cc(F)ccc1Oc1nncnc1N1CCC2(C1)CN([C@@H](CCCN)C(C)C)C2)C(C)C [Compound 2, (S)-2-((5-(2-(6-amino-2-methylhexan-3-yl)-2,6-diazaspiro[3.4]octan-6-yl)-1,2,4-triazin-6-yl)oxy)-N-ethyl-5-fluoro-N-isopropylbenzamide formate]
- IC50 [1, 2]: 3.31 nM
- IC50 (KO-52 cells; Homo sapiens, […]): > 15000 nM
- IC50 (MOLM14 cells; Homo sapiens, MOLM-14, […]): 2220 nM
- IC50 (MEIS1 mRNA; Homo sapiens, MOLM-14, 48 h): > 2500 nM

SMILES: CCN(C(=O)c1cc(F)ccc1Oc1nncnc1N1CCC2(C1)CN([C@@H](CN)C(C)C)C2)C(C)C (single isomer, unassigned) [Compound 25, (*R)-2-((5-(2-(1-amino-3-methylbutan-2-yl)-2,6-diazaspiro[3.4]octan-6-yl)-1,2,4-triazin-6-yl)oxy)-N-ethyl-5-fluoro-N-isopropylbenzamide]
- IC50 [1, 2]: 10.5 nM
- IC50 (KO-52 cells; Homo sapiens, […]): > 15000 nM
- IC50 (MOLM14 cells; Homo sapiens, MOLM-14, […]): > 3750 nM
- IC50 (MEIS1 mRNA; Homo sapiens, MOLM-14, 48 h): ~1200 nM

SMILES: CCN(C(=O)c1cc(F)ccc1Oc1nncnc1N1CCC2(C1)CN([C@@H](CCCO)C(C)C)C2)C(C)C (single isomer, unassigned) [Compound 48, (*S)—N-ethyl-5-fluoro-2-((5-(2-(6-hydroxy-2-methylhexan-3-yl)-2,6-diazaspiro[3.4]octan-6-yl)-1,2,4-triazin-6-yl)oxy)-N-isopropylbenzamide]
- IC50 [1, 3]: 70.4 nM
- IC50 (KO-52 cells): > 15000 nM
- IC50 (MOLM14 cells): > 940 nM
- IC50 (MEIS1 mRNA): > 1000 nM

SMILES: CCN(C(=O)c1cc(F)ccc1Oc1nncnc1N1CCC2(C1)CN([C@@H](CCC(C)(C)NC)C(C)C)C2)C(C)C (single isomer, unassigned) [Compound 36, (*S)-2-((5-(2-(2,6-dimethyl-6-(methylamino)heptan-3-yl)-2,6-diazaspiro[3.4]octan-6-yl)-1,2,4-triazin-6-yl)oxy)-N-ethyl-5-fluoro-N-isopropylbenzamide hydrochloride]
- IC50 [1, 2]: 2.6 nM
- IC50 (KO-52 cells; Homo sapiens, […]): > 15000 nM
- IC50 (MOLM14 cells; Homo sapiens, MOLM-14, […]): > 940 nM
- IC50 (MEIS1 mRNA; Homo sapiens, MOLM-14, 48 h): > 1000 nM

SMILES: CCN(C(=O)c1cc(F)ccc1Oc1nncnc1N1CCC2(C1)CN(C(CCNC(C)=O)C(C)C)C2)C(C)C (stereo not drawn) [Compound 29]
- IC50 [1, 2]: 2.42 nM
- IC50 (KO-52 cells; Homo sapiens, […]): > 15000 nM
- IC50 (MOLM14 cells; Homo sapiens, MOLM-14, […]): 970 nM
- IC50 (MEIS1 mRNA; Homo sapiens, MOLM-14, 48 h): ~2250 nM

SMILES: CCN(C(=O)c1cc(F)ccc1Oc1nncnc1N1CCC2(C1)CN([C@@H](CCCNC(C)=O)C(C)C)C2)C(C)C [Compound 7, (S)-2-((5-(2-(6-acetamido-2-methylhexan-3-yl)-2,6-diazaspiro[3.4]octan-6-yl)-1,2,4-triazin-6-yl)oxy)-N-ethyl-5-fluoro-N-isopropylbenzamide]
- IC50 [1, 2]: 86.2 nM
- IC50 (KO-52 cells; Homo sapiens, […]): > 15000 nM
- IC50 (MOLM14 cells; Homo sapiens, MOLM-14, […]): > 3750 nM
- IC50 (MEIS1 mRNA; Homo sapiens, MOLM-14, 48 h): > 2500 nM

SMILES: CCN(C(=O)c1cc(F)ccc1Oc1nncnc1N1CCC2(C1)CN([C@H](CCCN(C)CC(F)(F)F)C(C)C)C2)C(C)C [Compound 21, (R)-N-ethyl-5-fluoro-N-isopropyl-2-((5-(2-(2-methyl-6-(methyl(2,2,2-trifluormethyl)amino)hexan-3-yl)-2,6-diazaspiro[3.4]octan-6-yl)-1,2,4-triazin-6-yl)oxy)benzamide]
- IC50 [1, 2]: 10.4 nM
- IC50 (KO-52 cells; Homo sapiens, […]): > 15000 nM
- IC50 (MOLM14 cells; Homo sapiens, MOLM-14, […]): > 940 nM
- IC50 (MEIS1 mRNA; Homo sapiens, MOLM-14, 48 h): > 1000 nM

SMILES: CC(C)[C@H](CCC(N)=O)N1CC2(CCN(c3ncnnc3Oc3ccc(F)cc3-c3cncnc3C3CC3)C2)C1 (single isomer, unassigned) [Compound 44]
- IC50 [1, 2]: 46.6 nM
- IC50 (KO-52 cells; Homo sapiens, […]): > 15000 nM
- IC50 (MOLM14 cells; Homo sapiens, MOLM-14, […]): > 3750 nM
- IC50 (MEIS1 mRNA; Homo sapiens, MOLM-14, 48 h): > 2500 nM

SMILES: CCN(C(=O)c1cc(F)ccc1Oc1nncnc1N1CCC2(C1)CN([C@@H](CCC(C)(C)N(C)C)C(C)C)C2)C(C)C (single isomer, unassigned) [Compound 33, (*S)-2-((5-(2-(6-(dimethylamino)-2,6-dimethylheptan-3-yl)-2,6-diazaspiro[3.4]octan-6-yl)-1,2,4-triazin-6-yl)oxy)-N-ethyl-5-fluoro-N-isopropylbenzamide]
- IC50 [1, 2]: 2.84 nM
- IC50 (KO-52 cells; Homo sapiens, […]): > 15000 nM
- IC50 (MOLM14 cells; Homo sapiens, MOLM-14, […]): > 940 nM
- IC50 (MEIS1 mRNA; Homo sapiens, MOLM-14, 48 h): > 1000 nM

SMILES: CNC(=O)CC[C@H](C(C)C)N1CC2(CCN(c3ncnnc3Oc3ccc(F)cc3-c3cncnc3C3CC3)C2)C1 (single isomer, unassigned) [Compound 46, (*R)-4-(6-(6-(2-(4-cyclopropylpyrimidin-5-yl)-4-fluorophenoxy)-1,2,4-triazin-5-yl)-2,6-diazaspiro[3.4]octan-2-yl)-N,5-dimethylhexanamide]
- IC50 [1, 3]: 59.7 nM
- IC50 (KO-52 cells): > 15000 nM
- IC50 (MOLM14 cells): > 3750 nM
- IC50 (MEIS1 mRNA): > 2500 nM

SMILES: CC(C)[C@H](CCC(C)(C)N)N1CC2(CCN(c3ncnnc3Oc3ccc(F)cc3-c3cncnc3C3CC3)C2)C1 (single isomer, unassigned) [Compound 38, (*S)-5-(6-(6-(2-(4-cyclopropylpyrimidin-5-yl)-4-fluorophenoxy)-1,2,4-triazin-5-yl)-2,6-diazaspiro[3.4]octan-2-yl)-2,6-dimethylheptan-2-amine]
- IC50 [1, 2]: 1.16 nM
- IC50 (KO-52 cells; Homo sapiens, […]): > 15000 nM
- IC50 (MOLM14 cells; Homo sapiens, MOLM-14, […]): 520 nM
- IC50 (MEIS1 mRNA; Homo sapiens, MOLM-14, 48 h): ~1100 nM

SMILES: CCN(C(=O)c1cc(F)ccc1Oc1nncnc1N1CCC2(C1)CN([C@@H](CCCN(C)C)C(C)C)C2)C(C)C [Compound 5, (S)-2-((5-(2-(6-(dimethylamino)-2-methylhexan-3-yl)-2,6-diazaspiro[3.4]octan-6-yl)-1,2,4-triazin-6-yl)oxy)-N-ethyl-5-fluoro-N-isopropylbenzamide formate]
- IC50 [1, 2]: 2.26 nM
- IC50 (KO-52 cells; Homo sapiens, […]): > 15000 nM
- IC50 (MOLM14 cells; Homo sapiens, MOLM-14, […]): 840 nM
- IC50 (MEIS1 mRNA; Homo sapiens, MOLM-14, 48 h): ~990 nM

SMILES: CCN(C(=O)c1cc(F)ccc1Oc1nncnc1N1CCC2(C1)CN([C@@H](CCCNC(=O)NC)C(C)C)C2)C(C)C [Compound 9, (S)—N-ethyl-5-fluoro-N-isopropyl-2-((5-(2-(2-methyl-6-(3-methylureido)hexan-3-yl)-2,6-diazaspiro[3.4]octan-6-yl)-1,2,4-triazin-6-yl)oxy)benzamide]
- IC50 [1, 2]: 44.7 nM
- IC50 (KO-52 cells; Homo sapiens, […]): > 15000 nM
- IC50 (MOLM14 cells; Homo sapiens, MOLM-14, […]): > 3750 nM

SMILES: CCN(C(=O)c1cc(F)ccc1Oc1nnc(Cl)nc1N1CCC2(C1)CN([C@H](CCCN(C)C)C(C)C)C2)C(C)C [Compound 411, (R)-2-((3-chloro-5-(2-(6-(dimethylamino)-2-methylhexan-3-yl)-2,6-diazaspiro[3.4]octan-6-yl)-1,2,4-triazin-6-yl)oxy)-N-ethyl-5-fluoro-N-isopropylbenzamide formate]
- IC50 (OCI-AML3 cells): 680 nM
- IC50 [1, 2]: 0.33 nM
- IC50 (MOLM14 cells; Homo sapiens, MOLM-14, […]): 210 nM
- IC50 (MEIS1 mRNA; Homo sapiens, MOLM-14, 48 h): 110 nM

SMILES: CCN(C(=O)c1cc(F)ccc1Oc1nnc(OC)nc1N1CCC2(C1)CN([C@H](CCCN(C)C)C(C)C)C2)C(C)C [Compound 410, (R)-2-((5-(2-(6-(dimethylamino)-2-methylhexan-3-yl)-2,6-diazaspiro[3.4]octan-6-yl)-3-methoxy-1,2,4-triazin-6-yl)oxy)-N-ethyl-5-fluoro-N-isopropylbenzamide formate]
- IC50 (OCI-AML3 cells): 380 nM
- IC50 [1, 2]: 0.12 nM
- IC50 (MOLM14 cells; Homo sapiens, MOLM-14, […]): 160 nM
- IC50 (MEIS1 mRNA; Homo sapiens, MOLM-14, 48 h): 120 nM
